This is an account of results in patent US20100105629A1, “N-Substituted Peptidomimetic Inhibitors of Dipeptidylpeptidase IV” (priority 2007, published 2010).

Read-outs that look alike come from different tables or passages of the source. A value given as a limit tells only on which side of the number the result lay.

The target in this assay is T1, Dipeptidyl peptidase IV (Homo sapiens, UniProt P27487).
T1 construct: Dipeptidyl peptidase IV was purified from human placenta; from tissue; host or cells: human placenta
T1 sequence (P27487 whole entry): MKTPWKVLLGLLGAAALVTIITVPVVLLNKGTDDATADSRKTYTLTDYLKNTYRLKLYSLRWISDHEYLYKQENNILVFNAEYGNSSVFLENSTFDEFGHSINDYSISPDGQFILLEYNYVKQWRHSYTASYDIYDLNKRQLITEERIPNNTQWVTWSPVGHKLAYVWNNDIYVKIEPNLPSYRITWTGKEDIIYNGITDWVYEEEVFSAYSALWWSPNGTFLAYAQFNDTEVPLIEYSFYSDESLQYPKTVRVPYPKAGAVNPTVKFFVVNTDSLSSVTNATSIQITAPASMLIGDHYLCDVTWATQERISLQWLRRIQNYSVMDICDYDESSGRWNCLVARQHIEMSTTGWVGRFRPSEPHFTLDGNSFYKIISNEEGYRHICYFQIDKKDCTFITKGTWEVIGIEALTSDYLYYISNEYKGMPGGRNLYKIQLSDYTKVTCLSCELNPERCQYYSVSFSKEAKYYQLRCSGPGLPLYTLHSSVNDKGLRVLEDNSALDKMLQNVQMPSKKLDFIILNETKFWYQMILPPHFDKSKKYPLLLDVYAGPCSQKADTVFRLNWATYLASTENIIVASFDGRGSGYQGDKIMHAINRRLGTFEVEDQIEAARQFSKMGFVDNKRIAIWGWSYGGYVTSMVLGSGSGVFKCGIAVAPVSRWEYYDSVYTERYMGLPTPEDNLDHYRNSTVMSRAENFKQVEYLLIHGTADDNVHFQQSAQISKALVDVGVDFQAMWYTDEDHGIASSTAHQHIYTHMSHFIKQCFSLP
The assay can be described thus: DPP IV inhibition assay (chromogenic substrate Ala-Pro-p-nitroanalide). In kind it is biochemical. Conditions: Xaa-N(Methyl)-boroGly series; for IC50: 10 min incubation with enzyme, assay 25° C.; for Cyclization Index (CI): ratio of the IC50 at pH 8 and the IC50 at pH 2. How it is done:
Dipeptidyl peptidase IV was purified from human placenta. Assays were performed at room temperature (25° C.) in 100 mM HEPES, pH 8.0, 0.14 M NaCl with the chromogenic substrate Ala-Pro-p-nitroanalide (Bachem) using a Molecular Devices SPECTRAmax 340PC^384 microtiter plate reader Inhibitor stocks (1 mg/mL) were prepared in 0.01 N HCl solution for pH 2.0 and in pH 8.0 HEPES buffer for pH 8.0. Both stocks were equilibrated at corresponding pH overnight at room temperature. The 1:10 dilution of inhibitor stocks was done with 0.01 N HCl for pH 2.0 and with pH 8.0 HEPES buffer for pH 8.0 immediately preceding the enzymatic reactions. Enzymatic reactions were carried out by incubating 250 μL of approximately 0.35 nM DPP IV with 30 μL of various inhibitor concentrations (ranging between 10^−3 and 10^−10 M) for 10 minutes before addition of 30 μL of 300 μM substrate. The absorbance at 410 nm was measured 30 minutes after addition of the substrate. Assays and their corresponding measurements were performed in triplicate. The negative control was prepared exactly the same as above, except that 30 μL of 0.01 N HCl was added instead of inhibitor solutions.
After a 10 minute incubation with the enzyme before addition of the substrate. The IC50 values were determined by fitting the data to a sigmoidal dose-response curve using non-linear regression in Prism 3.0 (Graph Pad).

Setting [1] is: inhibitor stock equilibrated overnight at pH 2.0 (0.01 N HCl), HEPES pH 8.0, read-out: IC50 (pH 2).
[2] abbreviates: inhibitor stock equilibrated overnight at pH 8.0 (HEPES buffer), read-out: IC50 (pH 8).

On to `CSCC[C@H](N)C(=O)N(C)CB(O)O` [Met, H-(S)-Met-boroSar], for which the “Cyclization Index (CI)” value is reported as under 100. Also, the IC50 under setting [1] was under 0.4 µM. For the same compound, the IC50 under setting [2] is under 25 µM.
Taken in the same sequence, the figures for `CN(CB(O)O)C(=O)CNC(C)(C)C` [N-t-Butyl-Gly, H-N-(tBu)-Gly-boroSar] were under 1, under 0.15 µM and under 0.15 µM.
In the same order, the values of `C[C@@H](O)[C@H](N)C(=O)N(C)CB(O)O` [Thr, H-(S)-Thr-boroSar] are under 100, under 0.7 µM and under 50 µM.
Take `CC(C)(C)C(N)C(=O)O` (stereo not drawn) [t-Butyl-Gly]: the “Cyclization Index (CI)” value is under 1. Further, the IC50 under setting [1] was under 0.15 µM. In addition, the IC50 under setting [2] is under 0.15 µM.
For the compound H-(S)-N-(Me)-Ala-boroSar [N-Methyl-Ala], the “Cyclization Index (CI)” value is under 5. Further, the IC50 under setting [1] is under 75 µM. Also, under setting [2], the IC50 was under 1000 µM.

One may read the IC50 as the concentration that inhibits the measured activity by half.
